Experimental data from patent US9095589B2, “Chirally pure isomers of itraconazole for use as angiogenesis inhibitors” (Johns Hopkins University, priority 2007, dated 2015).
“Also recorded” adds a separate entry of the source. Read-outs that look alike come from different tables or passages of the source.

Legend:
five yeast strains = assay: Fungal Susceptibility Assays (MIC80); type: cell-based, C. glabrata, C. neoformans, S. cerevisiae, C. albicans; settings: four out of five strains
From the text: (§1) Pooled HUVEC and EGM-2 bullet kits were purchased from Lonza. Powdered RPMI 1640 media with L-glutamine and without sodium bicarbonate was purchased from Gibco. Amino acids, uracil, and agar were purchased from Sigma and morpholinepropanesulfonic acid (MOPS) was purchased from Fisher. Dimethyl Sulfoxide (DMSO) was purchased from J. T. Baker. C. glabrata strains BG1 (J. Infect. Dis. 1996, 173, 425-431) and BG2 (Genetics 1999, 151, 979-987), C. neoformans H99 (Am. J. Pathol. 1980, 101, 177-193), S. cerevisiae BY4741 (MATa, ura3, his3, leu2, met15), and C. albicans (ATCC 10261) were used.
Fungi were grown overnight in 5 mL YES supplemented 225 mg/L adenine, histidine, leucine, uracil, and lysine (supplemented YES) at 30° C. with shaking. […] Abs600 was measured using a plate reader (Bio-Tek Synergy HT) after vigorous shaking for 45 seconds to resuspend the cells. The background absorbance from noninoculated wells was subtracted and the absorbance of test wells was divided by that of wells treated with vehicle alone. […]
After the quality of all stereoisomers was confirmed, the potency of each stereoisomer against HUVEC proliferation and fungal growth was determined (FIG. 7). HUVEC were incubated with drug or vehicle alone for 24 hours and then pulsed for 6 hours with [^3H]-thymidine, the incorporation of which was taken as a readout of cell proliferation. […]

C. neoformans H99 = assay: Fungal Susceptibility Assay (MIC80), C. neoformans; type: cell-based
From the text: as §1
Fungi were grown overnight in 5 mL YES supplemented 225 mg/L adenine, histidine, leucine, uracil, and lysine (supplemented YES) at 30° C. with shaking. Cultures were diluted to 0.01 OD600 in RPMI (with L-glutamine, without sodium bicarbonate) which was supplemented with 2% glucose, 225 mg/L adenine, histidine, methionine, leucine, uracil, and lysine and buffered with 165 mM MOPS to 7.0 (complete RPMI). This solution was then further diluted 190-fold in complete RPMI in 96-well plates containing test compounds in a final volume of 150 μL. When practical, the intermediate RPMI dilution was bypassed and the overnight cultures were directly diluted to the appropriate OD600 in the RPMI solution that was added to the 96-well plates. Two-fold serial dilutions of the compounds were tested starting at 4 ug/mL with each well containing 0.125% vehicle (DMSO). The plates were incubated in a humidified environment at 30° C. with shaking for 30 hours except for experiments with C. neoformans which was incubated for 54 h. Abs600 was measured using a plate reader (Bio-Tek Synergy HT) after vigorous shaking for 45 seconds to resuspend the cells. The background absorbance from noninoculated wells was subtracted and the absorbance of test wells was divided by that of wells treated with vehicle alone. The percent of remaining growth for each drug concentration was averaged over 2-3 independent experiments, each with two technical replicates, and the minimum concentration giving 80% inhibition (MIC80) was determined.
(§2) After the quality of all stereoisomers was confirmed, the potency of each stereoisomer against HUVEC proliferation and fungal growth was determined (FIG. 7). HUVEC were incubated with drug or vehicle alone for 24 hours and then pulsed for 6 hours with [^3H]-thymidine, the incorporation of which was taken as a readout of cell proliferation. Inhibition of fungal growth was assayed by incubating five yeast strains with 2-fold serial dilutions of each stereoisomer for 30-60 hours depending on the strain, and then measuring the OD600 of the culture to quantitate growth. The minimum concentration capable of inhibiting growth by 80% (MIC80) was determined.

HUVEC [1] = assay: HUVEC Proliferation Assay of itraconazole stereoisomers; type: cell-based, human
Description: HUVEC were plated in a 96-well plate at a density of 2000 cells/well 199 μL media. After recovering overnight, cells were incubated for 24 hours with drugs added from 200×DMSO stocks. Next, cells were incubated with 0.9 μCi of [^3H]-thymidine for 6 h, washed once with PBS, trypsinized, and transferred to filtermats (Wallac) using a Mach III M Harvester 96 (Tomtec). The filtermats were then dried overnight. Using a 1450 Microbeta apparatus (Wallac), the amount of [^3H] at each position on the filtermat was determined by scintillation counting. Counts from vehicle only treated controls were used to normalize for maximum proliferation. Experiments were conducted in triplicate with multiple technical replicates for each data point. A four parameter logistic regression was used to determine IC50 values (GraphPad Prism [v4.03]).
as §2

HUVEC [2] = assay: HUVEC cell cycle analysis (propidium iodide, FACS); type: cell-based, human
From the text: To delineate the mechanism of inhibition of endothelial cell proliferation by itraconazole, the effect on the cell cycle progression of HUVEC by fixing and staining cells with propidium iodide followed by FACS analysis was examined.

HUVEC [3] = assay: HUVEC proliferation assay ([3H]-thymidine incorporation); type: cell-based, human; settings: for IC50: Homo sapiens, HUVEC
Description: (§3) HUVEC were purchased from Cambrex Biosciences (Walkersvilie, Md.) and maintained in EGM-2 media (Cambrex) which contains VEGF, bFGF, and EGF. LPDS were purchased from Intracell. BAEC and Hela cells were maintained in DMEM media containing 10% FBS. Jurkat cells were maintained in RPMI media containing 10% FBS. In a typical experiment 5,000-10,000 cells/well in 0.2 mL EGM-2 media were allowed to adhere for 8 h and then incubated with drug for 36 h. Cells were pulsed with 1 μCi [^3H]-thymidine for 8 h (MP Biomedicals, 6.7 Ci/mmol), and harvested using trypsin onto glass fiber filters (Wallac, Turku, Finland). The readout was performed on a Perkin Elmer MicroBeta plate reader. Cells used were under five passages.
Endothelial cells form the inner lining of all blood vessels and constitute an essential part of new as well as pre-existing blood vessels. An endothelial cell proliferation assay was utilized to screen our clinical drug library. The screen was carried out in 96-well plates with each drug at a final concentration of 10 μM. Thus, HUVEC were incubated with drugs for 36 h and proliferation was measured by following incorporation of [3H]-thymidine for the final 8 h. The preliminary screen identified 210 existing drugs with at least 50% inhibition at 10 μM, which belong to multiple drug classes (FIG. 1a).

BAEC [4] = assay: BAEC proliferation with or without free cholesterol ([3H]-thymidine); type: cell-based, bovine; settings: for IC50: Bos taurus, DMEM 10% LPDS, 36 h
Description: BAEC were incubated in DMEM, 10% lipoprotein deficient serum (LPDS) with indicated concentrations of itraconazole (a) azalanstat (b) or TNP-470 (c) either alone or in combination with 40 μg/ml free cholesterol for 36 h. Cells were then pulsed with 1 μCi [^3H]-thymidine for 8 h before they are harvested for scintillation counting.
as §3
A hallmark of inhibitors of 14DM is that their potencies are dependent on the levels of cholesterol in cell culture medium. Thus, the potencies of both azalanstat and itraconazole in cell culture media either containing or lacking cholesterol was determined.

[5] = tested on: human foreskin fibroblasts (HFF); assay: Human foreskin fibroblast proliferation (Calcein-AM); type: cell-based; settings: 96 h with drug
Description: Human foreskin fibroblast (HFF) cells were cultured at passage 2 in DMEM low glucose, 10% fetal bovine serum, and 1% penicillin-streptomycin. Experiments were performed with 2,500 cells/well in 0.2 mL and incubated for 96 h with drug. Plates containing cells were washed once with PBS, incubated with 1 μM Calcein-AM (Molecular Probes) in PBS for 4 h, and read in a fluorescent plate reader. IC50 values were determined using four-parameter logarithmic analysis with GraphPad Prism and are presented as mean±s.e.m. for triplicate experiments.

[6] = tested on: new blood vessel formation in Matrigel plugs; assay: Mouse Matrigel model of angiogenesis; type: in vivo; settings: mice, 37.5 mg/kg i.p. once daily, Matrigel with VEGF and bFGF, 10 days
Description: To determine whether itraconazole inhibited angiogenesis in vivo, itraconazole was tested in a mouse Matrigel model. […] Female athymic nude 5-week old, 25-30 g mice were purchased from NO and treated in accordance with standard procedures. In all animal experiments the i.v. formulation of itraconazole was obtained from the Johns Hopkins Hospital Pharmacy. Control mice were treated with vehicle (40% hydroxypropyl-β-cyclodextrin, 2.5% propylene glycol, pH 4.5). Mice were pretreated for three days and then implanted subcutaneously with 0.5 mL of Matrigel (BD Biosciences) containing 100 ng/mL VEGF and 150 ng/mL bFGF. Drug treatment was continued daily for 10 days, mice were sacrificed, and plugs were harvested, fixed in neutral buffered formalin, and processed for histology using MAS-trichrome staining. A cross section of the entire Matrigel plug was photographed at 100× and erythrocyte-filled blood vessels were counted per field in a blinded manner. P-values comparing itraconazole versus vehicle treated mice were determined using the two-tailed Student's T-test; and the data are presented as mean±s.e.m.

BAEC [7] = assay: Cell cycle progression of BAEC; type: cell-based, bovine
[8] = 40 μg/ml free cholesterol, read-out: IC50, endothelial cell proliferation in the presence of cholesterol
[9] = no cholesterol, read-out: IC50, endothelial cell proliferation in the absence of cholesterol

For `CC[C@@H](C)n1ncn(-c2ccc(N3CCN(c4ccc(OC[C@H]5CO[C@@](Cn6cncn6)(c6ccc(Cl)cc6Cl)O5)cc4)CC3)cc2)c1=O` [Compound 23f, 4-(4-(4-(4-(((2S,4S)-2-((1H-1,2,4-triazol-1-yl)methyl)-2-(2,4-dichlorophenyl)-1,3-dioxolan-4-yl)methoxy)phenyl)piperazin-1-yl)phenyl)-1-((R)-sec-butyl)-1H-1,2,4-triazol-5(4H)-one], the “antifungal potency” value (five yeast strains) was “roughly as potent as the cis-diastereomers; also recorded: about as potent as the cis diastereomers”, the “fold less potent than 23g and 23h” value (C. neoformans H99) was 2 fold and the “fold less potent than the best inhibitor” value (C. neoformans H99) was 32 fold.
`CC[C@@H](C)n1ncn(-c2ccc(N3CCN(c4ccc(OC[C@@H]5CO[C@@](Cn6cncn6)(c6ccc(Cl)cc6Cl)O5)cc4)CC3)cc2)c1=O` [Compound 23b, 4-(4-(4-(4-(((2S,4R)-2-((1H-1,2,4-triazol-1-yl)methyl)-2-(2,4-dichlorophenyl)-1,3-dioxolan-4-yl)methoxy)phenyl)piperazin-1-yl)phenyl)-1-((R)-sec-butyl)-1H-1,2,4-triazol-5(4H)-one] was tested, and the “potency against HUVEC proliferation” value (HUVEC [1]) was “greatest antiangiogenic potential”.
`CC[C@H](C)n1ncn(-c2ccc(N3CCN(c4ccc(OC[C@H]5CO[C@@](Cn6cncn6)(c6ccc(Cl)cc6Cl)O5)cc4)CC3)cc2)c1=O` [Compound 23e, 4-(4-(4-(4-(((2S,4S)-2-((1H-1,2,4-triazol-1-yl)methyl)-2-(2,4-dichlorophenyl)-1,3-dioxolan-4-yl)methoxy)phenyl)piperazin-1-yl)phenyl)-1-((S)-sec-butyl)-1H-1,2,4-triazol-5(4H)-one] was tested, and the “antifungal potency” value (five yeast strains) was “roughly as potent as the cis-diastereomers; also recorded: about as potent as the cis diastereomers”, the “fold less potent than 23g and 23h” value (C. neoformans H99) was 2 fold and the “fold less potent than the best inhibitor” value (C. neoformans H99) was 32 fold.
In the case of `CCC(C)n1ncn(-c2ccc(N3CCN(c4ccc(OC[C@H]5CO[C@](Cn6cncn6)(c6ccc(Cl)cc6Cl)O5)cc4)CC3)cc2)c1=O` (single isomer, unassigned; stereoisomer 4) [4S-cis stereoisomer], the “effect on HUVEC cell cycle progression” value (HUVEC [2]) is reported as “potently inhibits HUVEC cell cycle progression at the G1/S transition” and the IC50 (HUVEC [3]) is reported as 1100 ± 130 nM.
For `CO[C@@H]1[C@H](OC(=O)NC(=O)CCl)CC[C@]2(CO2)[C@H]1[C@@]1(C)O[C@@H]1CC=C(C)C` [TNP-470], the “potency on endothelial cell proliferation in absence versus presence of cholesterol” value (BAEC [4]; with or without 40 μg/ml free cholesterol) was “roughly equal potency”.
`CCC(C)n1ncn(-c2ccc(N3CCN(c4ccc(OCC5COC(Cn6cncn6)(c6ccc(Cl)cc6Cl)O5)cc4)CC3)cc2)c1=O` (racemic) [Itraconazole] was tested, and the IC50 [5] was > 20000 nM, the “decrease in new blood vessel formation compared to vehicle-treated controls” value [6] was 67.5% and the IC50 (BAEC [4]; [8]) was 230 nM. The IC50 (BAEC [4]; [9]) was 44 nM, the “percentage of cells in G1” value (BAEC [7]; Cholesterol) was 66.2% and the “percentage of cells in G2/M” value (BAEC [7]; Cholesterol) was 12.0%. The “percentage of cells in S” value (BAEC [7]; Cholesterol) was 21.2%, the “percentage of cells in G1” value (BAEC [7]; Control (no added cholesterol)) was 77.0% and the “percentage of cells in G2/M” value (BAEC [7]; Control (no added cholesterol)) was 12.0%. The “percentage of cells in S” value (BAEC [7]; Control (no added cholesterol)) was 10.5% and the IC50 (HUVEC [3]) was 160 nM.
`Nc1ccc(SC[C@@H]2CO[C@](CCc3ccc(Cl)cc3)(Cn3ccnc3)O2)cc1` [Azalanstat] was tested, and the “effect on HUVEC cell cycle progression” value (HUVEC [2]) was “blocked the cell cycle progression”, the IC50 (BAEC [4]; [8]) was 1200 nM and the IC50 (BAEC [4]; [9]) was 310 nM. The “percentage of cells in G1” value (BAEC [7]; Cholesterol) was 70.2%, the “percentage of cells in G2/M” value (BAEC [7]; Cholesterol) was 10.0% and the “percentage of cells in S” value (BAEC [7]; Cholesterol) was 19.4%. For the same compound, the “percentage of cells in G1” value (BAEC [7]; Control (no added cholesterol)) was 74.5%, the “percentage of cells in G2/M” value (BAEC [7]; Control (no added cholesterol)) was 8.8% and the “percentage of cells in S” value (BAEC [7]; Control (no added cholesterol)) was 16.8%.
In the case of `CCC(C)n1ncn(-c2ccc(N3CCN(c4ccc(OC[C@@H]5CO[C@@](Cn6cncn6)(c6ccc(Cl)cc6Cl)O5)cc4)CC3)cc2)c1=O` (single isomer, unassigned; diastereomer 4) [4R-cis diastereomer], the “potency against HUVEC proliferation” value (HUVEC [1]) is reported as “slightly more potent than the cis-4S isomer”, the “fold more potent than the 4S-cis stereoisomer, HUVEC proliferation” value (HUVEC [3]) is reported as “about 20 fold” and the IC50 (HUVEC [3]) is reported as 56 ± 10 nM.
In the case of `CC[C@H](C)n1ncn(-c2ccc(N3CCN(c4ccc(OC[C@@H]5CO[C@@](Cn6cncn6)(c6ccc(Cl)cc6Cl)O5)cc4)CC3)cc2)c1=O` [Compound 23a, 4-(4-(4-(4-(((2S,4R)-2-((1H-1,2,4-triazol-1-yl)methyl)-2-(2,4-dichlorophenyl)-1,3-dioxolan-4-yl)methoxy)phenyl)piperazin-1-yl)phenyl)-1-((S)-sec-butyl)-1H-1,2,4-triazol-5(4H)-one], the “potency against HUVEC proliferation” value (HUVEC [1]) is reported as “greatest antiangiogenic potential” and the “difference in potency between 23a and 23f (most and least potent), HUVEC proliferation” value (HUVEC [1]; 24 h with drug) is reported as “greater than 4 fold”.
